For 1 compound, Ki, IC50 and inhibition results are on record in ChEMBL document CHEMBL1141885, “N1-arylsulfonyl-3-(1,2,3,6-tetrahydropyridin-4-yl)-1H-indole derivatives are potent and selective 5-HT6 receptor antagonists” (Bioorg Med Chem Lett, 2005).

Assay [1] has as its target D(3) dopamine receptor (Homo sapiens, UniProt P35462). Nature of the assay: Binding affinity against human cloned Dopamine receptor D3 stably expressed in CHO-K1 cells using [3H]spiperone. In kind it is cell-based.
Assay [2] deals with T1, D(4) dopamine receptor (Homo sapiens, UniProt P21917).
T1 sequence (P21917 whole entry): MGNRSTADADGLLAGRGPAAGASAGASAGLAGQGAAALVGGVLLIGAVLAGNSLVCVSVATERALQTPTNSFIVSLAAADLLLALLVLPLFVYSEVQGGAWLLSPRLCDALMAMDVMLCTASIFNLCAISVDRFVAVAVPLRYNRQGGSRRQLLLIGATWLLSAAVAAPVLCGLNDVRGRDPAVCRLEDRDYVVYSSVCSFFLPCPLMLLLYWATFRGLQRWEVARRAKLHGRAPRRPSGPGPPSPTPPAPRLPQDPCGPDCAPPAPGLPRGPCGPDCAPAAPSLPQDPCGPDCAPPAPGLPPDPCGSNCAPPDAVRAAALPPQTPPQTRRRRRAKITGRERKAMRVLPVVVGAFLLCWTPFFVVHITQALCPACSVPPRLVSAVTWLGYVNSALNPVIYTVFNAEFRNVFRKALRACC
The experiment in a line: Binding affinity against human cloned Dopamine receptor D4 stably expressed in CHO-K1 cells using [3H]spiperone. In kind it is cell-based.

Assay [3] has as its target T2, 5-hydroxytryptamine receptor 6 (Homo sapiens, UniProt P50406). Nature of the assay: Binding affinity against cloned human 5-hydroxytryptamine 6 receptor expressed in HeLa cells using [3H]LSD. The assay is classed as cell-based.
The target in assay [4] is T2, 5-hydroxytryptamine receptor 6. Nature of the assay: Inhibitory concentration against 5-HT stimulated cAMP production in HeLa cells stably transfected with human 5-HT6 receptor. The assay is classed as functional, cell-based. Background: cAMP levels reflect the balance of adenylyl cyclase and phosphodiesterase activity.
For assay [5], the target named is 5-hydroxytryptamine receptor 1B (Homo sapiens) (UniProt P28222). The experiment in a line: Inhibition of [3H]-5-HT binding to human cloned 5-hydroxytryptamine 1B receptor stably expressed in CHO cells at 1 uM. In kind it is cell-based.
In assay [6] the target is 5-hydroxytryptamine receptor 1D (Homo sapiens) (UniProt P28221). Nature of the assay: Inhibition of [3H]5-HT binding to human cloned 5-hydroxytryptamine 1D receptor stably expressed in CHO cells at 1 uM. In kind it is cell-based.
Assay [7] addresses T3, 5-hydroxytryptamine receptor 1F (Homo sapiens) (UniProt P30939).
T3 sequence (whole entry): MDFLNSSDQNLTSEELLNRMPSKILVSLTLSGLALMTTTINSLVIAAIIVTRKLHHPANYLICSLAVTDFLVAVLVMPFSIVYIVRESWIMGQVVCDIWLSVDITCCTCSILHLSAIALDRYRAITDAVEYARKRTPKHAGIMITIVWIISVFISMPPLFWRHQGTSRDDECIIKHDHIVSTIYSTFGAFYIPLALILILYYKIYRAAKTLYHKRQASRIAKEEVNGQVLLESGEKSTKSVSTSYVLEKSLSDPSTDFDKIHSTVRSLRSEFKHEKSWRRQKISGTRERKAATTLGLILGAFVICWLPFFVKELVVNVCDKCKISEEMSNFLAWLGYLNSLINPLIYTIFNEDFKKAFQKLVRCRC
Nature of the assay: Inhibition of [3H]-5-HT binding to human cloned 5-hydroxytryptamine 1F receptor stably expressed in CHO cells at 1 uM. In kind it is cell-based.

Assay [8] has as its target 5-hydroxytryptamine receptor 2A (Homo sapiens, UniProt P28223). The experiment in a line: Binding affinity against human cloned 5-hydroxytryptamine 2A receptor stably expressed in CHO cells using [125I]DOI. In kind it is cell-based.
Assay [9] has as its target T4, 5-hydroxytryptamine receptor 2C (Homo sapiens, UniProt P28335).
T4 sequence (P28335 whole entry): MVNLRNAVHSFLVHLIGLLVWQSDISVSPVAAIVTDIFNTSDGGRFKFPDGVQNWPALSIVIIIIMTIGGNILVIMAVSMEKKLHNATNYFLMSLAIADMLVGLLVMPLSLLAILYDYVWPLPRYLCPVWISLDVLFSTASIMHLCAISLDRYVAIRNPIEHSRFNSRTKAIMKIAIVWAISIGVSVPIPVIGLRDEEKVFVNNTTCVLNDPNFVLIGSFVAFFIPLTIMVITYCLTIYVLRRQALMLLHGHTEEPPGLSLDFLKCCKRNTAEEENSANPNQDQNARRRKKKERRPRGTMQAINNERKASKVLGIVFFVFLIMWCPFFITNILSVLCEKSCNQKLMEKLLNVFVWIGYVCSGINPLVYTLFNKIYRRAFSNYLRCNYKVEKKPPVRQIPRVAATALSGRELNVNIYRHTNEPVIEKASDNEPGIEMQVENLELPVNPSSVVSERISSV
Nature of the assay: Binding affinity against human cloned 5-hydroxytryptamine 2C receptor stably expressed in CHO cells using [3H]-5-HT. The assay is classed as cell-based.

The target in assay [10] is D(2) dopamine receptor (Homo sapiens, UniProt P14416). The experiment in a line: Binding affinity against human cloned Dopamine receptor D2 stably expressed in CHO-K1 cells using [3H]spiperone. In kind it is cell-based.
For assay [11], the target named is T5, 5-hydroxytryptamine receptor 1A (Homo sapiens, UniProt P08908).
T5 sequence (P08908 whole entry): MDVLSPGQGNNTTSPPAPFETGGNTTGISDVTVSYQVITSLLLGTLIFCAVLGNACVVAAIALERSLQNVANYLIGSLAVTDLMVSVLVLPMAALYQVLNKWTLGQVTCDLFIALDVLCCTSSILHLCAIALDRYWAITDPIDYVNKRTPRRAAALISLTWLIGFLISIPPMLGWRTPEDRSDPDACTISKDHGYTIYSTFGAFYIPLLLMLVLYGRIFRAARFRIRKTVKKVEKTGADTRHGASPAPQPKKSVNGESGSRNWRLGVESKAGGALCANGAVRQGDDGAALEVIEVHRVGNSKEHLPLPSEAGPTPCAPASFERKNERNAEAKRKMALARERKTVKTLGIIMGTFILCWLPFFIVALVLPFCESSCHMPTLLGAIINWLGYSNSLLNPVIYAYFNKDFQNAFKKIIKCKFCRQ
The experiment in a line: Binding affinity against human cloned 5-hydroxytryptamine 1A receptor stably expressed in CHO cells using DPAT.

pIC50, pKi: −log10 of the molar value.

T2 sequence (P50406 whole entry): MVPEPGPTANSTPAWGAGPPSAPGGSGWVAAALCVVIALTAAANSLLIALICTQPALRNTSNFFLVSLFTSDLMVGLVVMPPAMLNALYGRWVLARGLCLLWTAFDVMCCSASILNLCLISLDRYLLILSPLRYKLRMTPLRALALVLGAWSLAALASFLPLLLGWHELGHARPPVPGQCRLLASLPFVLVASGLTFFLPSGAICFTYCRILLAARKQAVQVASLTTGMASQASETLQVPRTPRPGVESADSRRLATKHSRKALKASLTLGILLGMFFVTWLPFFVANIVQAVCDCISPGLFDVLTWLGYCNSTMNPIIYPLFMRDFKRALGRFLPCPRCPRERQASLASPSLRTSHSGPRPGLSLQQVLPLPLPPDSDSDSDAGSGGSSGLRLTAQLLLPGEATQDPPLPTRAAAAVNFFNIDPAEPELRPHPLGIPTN
Sequence of D(3) dopamine receptor (P35462 whole entry): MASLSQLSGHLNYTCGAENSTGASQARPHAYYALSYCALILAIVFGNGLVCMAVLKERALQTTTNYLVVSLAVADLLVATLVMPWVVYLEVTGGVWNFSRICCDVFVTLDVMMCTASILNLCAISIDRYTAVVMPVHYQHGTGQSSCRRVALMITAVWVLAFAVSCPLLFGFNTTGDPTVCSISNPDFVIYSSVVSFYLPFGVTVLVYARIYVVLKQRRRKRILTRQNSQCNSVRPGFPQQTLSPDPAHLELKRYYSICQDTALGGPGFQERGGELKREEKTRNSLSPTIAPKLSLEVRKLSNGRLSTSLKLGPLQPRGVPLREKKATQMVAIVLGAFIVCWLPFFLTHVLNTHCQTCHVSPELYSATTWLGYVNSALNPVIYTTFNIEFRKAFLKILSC
Sequence of 5-hydroxytryptamine receptor 1D (Homo sapiens) (P28221 whole entry): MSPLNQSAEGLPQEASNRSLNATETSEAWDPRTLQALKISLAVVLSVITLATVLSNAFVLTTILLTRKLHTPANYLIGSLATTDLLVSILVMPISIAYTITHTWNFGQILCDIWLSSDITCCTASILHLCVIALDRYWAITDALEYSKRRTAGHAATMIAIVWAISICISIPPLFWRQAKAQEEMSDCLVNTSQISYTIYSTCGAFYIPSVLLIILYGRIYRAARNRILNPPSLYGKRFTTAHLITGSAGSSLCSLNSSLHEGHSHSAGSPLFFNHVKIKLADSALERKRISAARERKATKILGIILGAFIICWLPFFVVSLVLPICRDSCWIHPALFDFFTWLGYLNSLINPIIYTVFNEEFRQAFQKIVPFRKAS
Sequence of 5-hydroxytryptamine receptor 1B (Homo sapiens) (P28222 whole entry): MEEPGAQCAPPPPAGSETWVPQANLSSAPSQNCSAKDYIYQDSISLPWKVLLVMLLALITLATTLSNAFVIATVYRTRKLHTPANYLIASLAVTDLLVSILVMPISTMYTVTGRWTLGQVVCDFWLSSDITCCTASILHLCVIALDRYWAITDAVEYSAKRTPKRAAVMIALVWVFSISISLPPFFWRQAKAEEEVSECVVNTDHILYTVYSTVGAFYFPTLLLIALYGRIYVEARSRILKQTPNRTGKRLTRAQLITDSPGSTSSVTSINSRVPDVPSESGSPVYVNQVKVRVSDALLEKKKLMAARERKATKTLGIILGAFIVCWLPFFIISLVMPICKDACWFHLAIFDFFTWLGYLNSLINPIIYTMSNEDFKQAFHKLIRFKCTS
Sequence of D(2) dopamine receptor (P14416 whole entry): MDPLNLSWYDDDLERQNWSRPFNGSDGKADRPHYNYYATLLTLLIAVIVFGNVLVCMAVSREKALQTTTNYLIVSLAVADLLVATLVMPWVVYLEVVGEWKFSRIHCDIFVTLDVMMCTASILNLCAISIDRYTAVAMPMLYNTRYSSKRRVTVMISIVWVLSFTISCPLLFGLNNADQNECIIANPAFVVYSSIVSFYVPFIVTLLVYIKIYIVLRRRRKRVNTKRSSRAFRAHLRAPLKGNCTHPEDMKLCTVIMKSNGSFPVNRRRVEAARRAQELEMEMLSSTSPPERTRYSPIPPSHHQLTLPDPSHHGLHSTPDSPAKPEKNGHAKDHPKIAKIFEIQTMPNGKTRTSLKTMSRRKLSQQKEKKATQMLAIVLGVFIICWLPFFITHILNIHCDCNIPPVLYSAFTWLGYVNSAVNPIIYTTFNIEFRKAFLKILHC
Sequence of 5-hydroxytryptamine receptor 2A (P28223 whole entry): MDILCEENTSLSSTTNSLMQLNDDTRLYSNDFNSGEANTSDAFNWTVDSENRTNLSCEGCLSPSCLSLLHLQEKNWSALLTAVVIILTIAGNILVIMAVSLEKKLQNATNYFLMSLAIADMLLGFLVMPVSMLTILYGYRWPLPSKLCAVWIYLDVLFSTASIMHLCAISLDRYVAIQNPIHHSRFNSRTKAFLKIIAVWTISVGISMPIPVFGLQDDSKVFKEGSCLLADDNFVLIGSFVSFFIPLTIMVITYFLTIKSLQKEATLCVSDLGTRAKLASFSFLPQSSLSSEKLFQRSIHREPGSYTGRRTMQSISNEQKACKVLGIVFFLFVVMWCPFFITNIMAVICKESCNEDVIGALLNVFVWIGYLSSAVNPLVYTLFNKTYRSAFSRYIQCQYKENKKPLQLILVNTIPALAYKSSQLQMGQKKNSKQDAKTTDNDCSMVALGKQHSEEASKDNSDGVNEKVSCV

In the case of `O=S(=O)(c1ccccc1Cl)n1cc(C2=CCNCC2)c2ccccc21`, the pKi (commonly the negative decadic logarithm of the Ki, by convention in mol/L) in assay [1] was 6.20; in [2] it was less than 5.30; in [3], 9.40; in assay [8], 6.22; in assay [9], 6.42; in assay [10], less than 5.70. In [11], this compound showed a pKi of less than 5.70. The pIC50 (usually the negative decadic logarithm of the IC50, by convention in mol/L) in assay [4] was 8.06. The inhibition (commonly the relative decrease from the control value, in per cent) in assay [5] was 12%; in assay [6], 6%; in [7] it was 2%.
